Results reported in patent US10434112B2, “Use of agonists of formyl peptide receptor 2 for treating dermatological diseases” (Allergan, Inc., priority 2013, dated 2019).
pEC50: −log10 of the molar value. One block for each compound: values may come before it.

Columns and labels:
[1] = test system: LL-37-induced inflammation in mouse ears; experiment: LL37-induced model of rosacea in mice (ear thickness); format: in vivo; conditions: topical application to ears; FIG. 2; p<0.05 vs. vehicle at all time points
Procedure: Prior to dosing, animals are lightly anaesthetized with isofluorane and baseline right and left ear thickness measurements are made with a digital caliper (Mitutoyo 293-340). At t=−1 hrs, animals are lightly anaesthetized with isoflurane to allow topical application (dorsal side) of 10 μL of FPR2 agonist formulated in a vehicle consisting of PBS:ethanol (50:50), or vehicle control to both ears. At t=0 hr, mice are re-anaesthetized. Following ear thickness measurements, 20 uL of LL-37 (100 μM) is injected into the right ear, while PBS is injected into the left ear. Additional ear thickness measurements are taken at t=3 and 6 hours. After the last time point, mice are euthanized by CO2 inhalation and ears collected for additional analyses.

FPRL-1 = FPRL-1 (Homo sapiens (Human), UniProt P25090); experiment: FPRL-1 Ga16-CHO EC50 (efficacy); format: cell-based; conditions: for FPRL-1 Gal16-CHO (efficacy): Table 3; for FPRL-1 Gal16-CHO (efficacy) / FPRL-1 Ga16-CHO (efficacy): value in brackets
FPRL-1, sequence (P25090 whole entry): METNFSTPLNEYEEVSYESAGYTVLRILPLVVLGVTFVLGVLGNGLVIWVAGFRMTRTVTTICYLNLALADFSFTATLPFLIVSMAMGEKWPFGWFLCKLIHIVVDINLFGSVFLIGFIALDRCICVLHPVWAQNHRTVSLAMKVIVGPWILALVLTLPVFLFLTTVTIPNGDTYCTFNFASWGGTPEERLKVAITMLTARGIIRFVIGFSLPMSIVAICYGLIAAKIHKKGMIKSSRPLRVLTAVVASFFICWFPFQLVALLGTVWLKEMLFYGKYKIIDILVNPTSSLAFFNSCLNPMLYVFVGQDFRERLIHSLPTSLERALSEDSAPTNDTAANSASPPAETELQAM

human FPR2 receptor = human FPR2 receptor (Homo sapiens (Human), UniProt P25090); experiment: FLIPR Ca+2 response in HEK-Gα16 cells stably expressing the human FPR2 receptor; format: cell-based; design: FPR2 (% eff): unit not given here; conditions: Table 4; value in brackets, given mostly as fraction
human FPR2 receptor, sequence (P25090 whole entry): as above
Method in brief: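 HEK-Gα16 cells stably expressing human FPR2, loaded with 2 μM Fluo-4 in HBSS/20 mM HEPES for 40 min at 37° C., then washed. Ligands added in HBSS/Hepes and Ca+2 responses recorded on FLIPR in relative fluorescence units.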

SMILES: CC(C)C[C@H](NC(=O)Nc1ccc(Br)cc1F)C(=O)NCC(=O)O [Compound 7, {[(2S)-2-{[(4-bromo-2-fluorophenyl)carbamoyl]amino}-4-methylpentanoyl]amino} acetic acid]
Anti-inflammatory activity in the LL-37-induced rosacea mouse model [1]: Anti-inflammatory activity

FPRL-1 Gal16-CHO (efficacy) (FPRL-1): 0.98
SMILES: O=C(CN1C(=O)C2CC=CCC2C1=O)Nc1ccc(Br)cc1 (centres unmarked) [N-(4-bromophenyl)-1,3,3a,4,7,7a-hexahydro-1,3-dioxo-2H-isoindole-2-acetamide]

SMILES: CC(C)C[C@H](NC(=O)Nc1ccc(Br)cc1)C(=O)NCC(=O)O [Compound 8, {[(2S)-2-{[(4-bromophenyl)carbamoyl]amino}-4-methylpentanoyl]amino} acetic acid]
Anti-inflammatory activity in the LL-37-induced rosacea mouse model [1]: Anti-inflammatory activity

FPRL-1 Ga16-CHO (efficacy) (FPRL-1; Table 1): 1.0
SMILES: O=C(Nc1ccc(Cl)cc1)NC(Cc1ccccc1)C(=O)O (centres unmarked) [2-({[(4-chlorophenyl)amino]carbonyl}amino)-3-phenylpropanoic acid]

FPRL-1 Gal16-CHO (efficacy) (FPRL-1): 0.94
SMILES: CC1(C)NC(=O)N(CC(=O)Nc2ccc(Br)cc2)C1=O [N-(4-bromophenyl)-2-(4,4-dimethyl-2,5-dioxoimidazolidin-1-yl)acetamide]

FPRL-1 Ga16-CHO (efficacy) (FPRL-1; Table 1): 0.91
SMILES: CC(C)[C@H](NC(=O)Nc1ccc(Br)cc1)C(=O)O [(2S)-2-({[(4-bromophenyl)amino]carbonyl}amino)-3-methylbutanoic acid]

FPR2 (% eff) (human FPR2 receptor): 1.0
SMILES: CC[C@H](C)[C@H](NC(=O)Nc1ccc(Br)cc1)C(=O)NCC(=O)O [Compound 3, {[(2S,3S)-2-{[(4-bromophenyl)carbamoyl]amino}-3-methylpentanoyl]amino} acetic acid]
Anti-inflammatory activity in the LL-37-induced rosacea mouse model [1]: Anti-inflammatory activity

FPRL-1 Ga16-CHO (efficacy) (FPRL-1; Table 1): 0.89
SMILES: CC[C@H](C)[C@H](NC(=O)Nc1ccc(Br)cc1)C(=O)O [(2S,3S)-2-({[(4-bromophenyl)amino]carbonyl}amino)-3-methylpentanoic acid]

FPRL-1 Ga16-CHO (efficacy) (FPRL-1; Table 1): 0.90
SMILES: COc1ccc(NC(=O)N[C@@H](Cc2ccccc2)C(=O)O)cc1 [(2S)-2-({[(4-methoxyphenyl)amino]carbonyl}amino)-3-phenylpropanoic acid]

FPRL-1 Ga16-CHO (efficacy) (FPRL-1; Table 1): 1.0
SMILES: O=C(Nc1ccc(Br)cc1)NC(Cc1ccccc1)C(=O)O (stereo in doubt) [(2S)-2-({[(4- bromophenyl)amino]carbonyl}amino)- 3-phenylpro] [(2S)-2-({[(4-bromophenyl)amino]carbonyl}amino)-3-phenylpropanoic acid]

FPRL-1 Ga16-CHO (efficacy) (FPRL-1; Table 1): 0.89
SMILES: O=C(Nc1ccc(Br)cc1)NC(Cc1c[nH]c2ccccc12)C(=O)O (centres unmarked) [2-({[(4-bromophenyl)amino]carbonyl}amino)-3-(1H-indol-3-yl)propanoic acid]

FPRL-1 Ga16-CHO (efficacy) (FPRL-1; Table 1): 0.99
SMILES: O=C(Nc1ccc(Br)cc1)N[C@H](Cc1ccccc1)C(=O)O [(2R)-2-({[(4- bromophenyl)amino]carbonyl}amino)- 3-phenylpro] [(2R)-2-({[(4-bromophenyl)amino]carbonyl}amino)-3-phenylpropanoic acid]

pEC50 (FPRL-1; Table 1): 7.51
SMILES: O=C(Nc1ccc(Br)cc1)NC(Cc1ccccc1)C(=O)O (stereo in doubt) [(2S)-2-({[(4-bromophenyl)amino]carbonyl}amino)-3-phenylpropanoic acid]

FPRL-1 Ga16-CHO (efficacy) (FPRL-1; Table 2): 0.94
SMILES: CC1(CCc2ccccc2)NC(=O)N(NC(=O)Nc2ccccc2F)C1=O (centres unmarked) [1-(2-fluorophenyl)-3-[4-methyl-2,5-dioxo-4-(2-phenylethyl)imidazolidin-1-yl]urea]

FPRL-1 Ga16-CHO (efficacy) (FPRL-1; Table 1): 0.79
SMILES: O=C(Nc1ccc(OC(F)(F)F)cc1)NC(Cc1ccccc1)C(=O)O (centres unmarked) [3-phenyl-2-[({[4-(trifluoromethoxy)phenyl]amino}carbonyl)amino]propanoic acid]

FPRL-1 Ga16-CHO (efficacy) (FPRL-1; Table 2): 1.0
SMILES: CC1(CCc2ccccc2)NC(=O)N(NC(=O)Nc2ccccc2)C1=O (centres unmarked) [1-[4-methyl-2,5-dioxo-4-(2-phenylethyl)imidazolidin-1-yl]-3-phenylurea]
